From ChEMBL document CHEMBL1154643, “Biaryl purine derivatives as potent antiproliferative agents: inhibitors of cyclin dependent kinases. Part I” (Bioorg Med Chem Lett, 2009)

What was measured:
[1] = Antiproliferative activity against human HeLaS3 cells by sulforhodamine B assay; assay type: functional; details: HeLa S3
[2] = target: Cyclin-dependent kinase 2/cyclin E (Homo sapiens, UniProt P24941); test: Inhibition of recombinant CDK2/cyclin E; assay type: protein-complex assay
[3] = target: Cyclin-dependent kinase 2/cyclin A (Homo sapiens, UniProt P24941); test: Inhibition of recombinant CDK2/cyclin A; assay type: protein-complex assay

IC50 [2] | IC50 [3] | Structure (SMILES) | GI50 [1]
– | – | CC[C@H](CO)Nc1nc(NCc2ccc(-c3ccccc3)cc2)c2ncn(C(C)C)c2n1 | 400 nM
200 nM | 400 nM | Cc1ccc(-c2ccc(CNc3nc(N[C@H]4CC[C@H](N)CC4)nc4c3ncn4C(C)C)cc2)cc1 | –
> 5000 nM | > 5000 nM | CC(C)n1cnc2c(NCc3ccc(-c4ccccc4)cc3)nc(N[C@H]3CC[C@H](NS(=O)(=O)C(F)(F)F)CC3)nc21 | –
250 nM | 500 nM | Cc1ccc(-c2ccc(CNc3nc(N[C@H]4CC[C@H](N)CC4)nc4c3ncn4C(C)C)cc2)cc1C | –
900 nM | 2000 nM | CC(C)n1cnc2c(NCc3ccc(-c4ccccc4)cc3)nc(N[C@@H]3CCCC[C@H]3N)nc21 | –
> 5000 nM | > 5000 nM | CC(C)n1cnc2c(NCc3ccc(-c4ccccc4)cc3)nc(N3CCC(C(N)=O)CC3)nc21 | –
300 nM | 900 nM | CC(C)n1cnc2c(NCc3ccc(-c4ccccc4)cc3)nc(N[C@H]3CC[C@H](NCC4CC4)CC3)nc21 | –
400 nM | 3000 nM | CC(C)n1cnc2c(NCc3ccc(-c4ccccc4)cc3)nc(NCCCN)nc21 | –
300 nM | 500 nM | CC(=O)N[C@H]1CC[C@H](Nc2nc(NCc3ccc(-c4ccccc4)cc3)c3ncn(C(C)C)c3n2)CC1 | –
400 nM | 900 nM | CC(C)n1cnc2c(NCc3ccc(-c4ccccc4)cc3)nc(N[C@@H]3CCCC[C@@H]3N)nc21 | –
3000 nM | 6000 nM | CCN(CC)[C@H]1CC[C@H](Nc2nc(NCc3ccc(-c4ccccc4)cc3)c3ncn(C(C)C)c3n2)CC1 | –
300 nM | 600 nM | CC(C)n1cnc2c(NCc3ccc(-c4ccccc4)cc3)nc(N[C@H]3CC[C@H](NC(=O)CC4CC4)CC3)nc21 | –
400 nM | 400 nM | CC(C)n1cnc2c(NCc3ccc(-c4ccccc4)cc3)nc(N[C@H]3CC[C@H](O)CC3)nc21 | –
500 nM | 600 nM | CC(C)n1cnc2c(NCc3ccc(-c4ccccc4)cc3)nc(NCCN)nc21 | –
300 nM | 1000 nM | CCCCN[C@H]1CC[C@H](Nc2nc(NCc3ccc(-c4ccccc4)cc3)c3ncn(C(C)C)c3n2)CC1 | –
800 nM | 1000 nM | CC(C)n1cnc2c(NCc3ccc(-c4ccccc4)cc3)nc(NC[C@H](C)NC(=O)OC(C)(C)C)nc21 | –
3000 nM | 3000 nM | CC(C)n1cnc2c(NCc3ccc(-c4ccccc4)cc3)nc(N3CCC(N)C3)nc21 (centres undefined) | –
200 nM | 500 nM | CCC(=O)N[C@H]1CC[C@H](Nc2nc(NCc3ccc(-c4ccccc4)cc3)c3ncn(C(C)C)c3n2)CC1 | –
900 nM | 1000 nM | CC(C)n1cnc2c(NCc3ccc(-c4ccccc4)cc3)nc(NC3CCCC(N)C3)nc21 (centres undefined) | –

IC50 [2] | IC50 [3] | Structure (SMILES) | GI50 [1]
600 nM | 2000 nM | CC(C)n1cnc2c(NCc3ccc(-c4ccccc4)cc3)nc(NC3(CO)CCCC3)nc21 | –
800 nM | 1000 nM | Cn1cnc2c(NCc3ccc(-c4ccccc4)cc3)nc(N[C@H]3CC[C@H](N)CC3)nc21 | –
2500 nM | 4000 nM | CC(C)n1cnc2c(NCc3ccc(-c4ccccc4)cc3)nc(NCC3CCNCC3)nc21 | –
900 nM | 2000 nM | CC(C)n1cnc2c(NCc3ccc(-c4ccccc4)cc3)nc(NC[C@H](C)N)nc21 | –
200 nM | 400 nM | Cc1cc(C)cc(-c2ccc(CNc3nc(N[C@H]4CC[C@H](N)CC4)nc4c3ncn4C(C)C)cc2)c1 | –
3000 nM | 3000 nM | CC(C)n1cnc2c(NCc3ccc(-c4ccccc4)cc3)nc(NCCCCN)nc21 | –
200 nM | 500 nM | CC(C)n1cnc2c(NCc3ccc(-c4ccccc4)cc3)nc(N[C@H]3CC[C@H](NS(C)(=O)=O)CC3)nc21 | –
400 nM | 400 nM | CC(C)n1cnc2c(NCc3ccc(-c4cccc(Cl)c4)cc3)nc(N[C@H]3CC[C@H](N)CC3)nc21 | –
150 nM | 350 nM | COc1cccc(-c2ccc(CNc3nc(N[C@H]4CC[C@H](N)CC4)nc4c3ncn4C(C)C)cc2)c1 | –
4000 nM | 5000 nM | CC(Nc1nc(N[C@H]2CC[C@H](N)CC2)nc2c1ncn2C(C)C)c1ccc(-c2ccccc2)cc1 (some centres undefined) | –
400 nM | 500 nM | CCCN[C@H]1CC[C@H](Nc2nc(NCc3ccc(-c4ccccc4)cc3)c3ncn(C(C)C)c3n2)CC1 | –
90 nM | 100 nM | N[C@H]1CC[C@H](Nc2nc(NCc3ccc(-c4ccccc4)cc3)c3ncn(C4CCCC4)c3n2)CC1 | –
800 nM | 1000 nM | CC(C)n1cnc2c(NCCc3ccc(-c4ccccc4)cc3)nc(N[C@H]3CC[C@H](N)CC3)nc21 | 5000 nM
200 nM | 300 nM | Cc1cccc(-c2ccc(CNc3nc(N[C@H]4CC[C@H](N)CC4)nc4c3ncn4C(C)C)cc2)c1 | –
600 nM | 1000 nM | CC(C)n1cnc2c(NCc3ccc(-c4ccccc4Cl)cc3)nc(N[C@H]3CC[C@H](N)CC3)nc21 | –
1000 nM | 4000 nM | CC(C)n1cnc2c(NCc3ccc(-c4ccccc4)cc3)nc(N3CCC(CN)CC3)nc21 | –
1000 nM | 3000 nM | CCN[C@H]1CC[C@H](Nc2nc(NCc3ccc(-c4ccccc4)cc3)c3ncn(C(C)C)c3n2)CC1 | –
– | – | Cn1cnc2c(NCc3ccccc3)nc(NCCO)nc21 [OLOMOUCINE] | 65000 nM
– | – | CC[C@H](CO)Nc1nc(NCc2ccccc2)c2ncn(C(C)C)c2n1 [SELICICLIB] | 20000 nM
